As usually defined, the IC50 is the concentration that inhibits the measured activity by half. A higher IC50 goes with weaker potency.

Results on six compounds are retold here after ChEMBL document CHEMBL1152503, “Quantitative high-throughput screening identifies inhibitors of anthrax-induced cell death” (Bioorg Med Chem, 2009).

Data set [1] concerns RAW264.7. Kind of data set: Cytoprotective activity against anthrax toxin lethal factor/protective antigen-induced cell death in mouse RAW264.7 cells assessed as cell viability at 10 uM by MTT reduction assay. Type of data set: functional, cell-based.
In data set [2] the test system is CHO. The data set is described as follows: Cytoprotective activity against anthrax fusion toxin FP59-induced cell death in CHO cells assessed as cell viability by MTT reduction assay. Format: functional, cell-based. As to conditions: Cricetulus griseus.
Data set [3] concerns CHO. Kind of data set: Cytoprotective activity against diphtheria toxin-induced cell death in CHO cells assessed as cell viability at 10 uM by MTT reduction assay. Type of data set: functional. As to conditions: Cricetulus griseus, read-out: Activity. (Tetrazolium dyes change colour on reduction, which living cells bring about.)
The subject of data set [4] is RAW264.7. Kind of data set: Cytotoxicity against mouse RAW264.7 cells at 10 uM by MTT assay. Type of data set: cell-based. Conditions: raw264.7, 10 µM.
The test system of data set [5] is CHO. Kind of data set: Cytoprotective activity against diphtheria toxin-induced cell death in CHO cells assessed as cell viability at 5 uM by MTT reduction assay. Format: functional. As to conditions: Cricetulus griseus, read-out: Activity.
Data set [6] deals with Replicase polyprotein 1ab (Severe acute respiratory syndrome-related coronavirus, UniProt P0C6X7). The data set is described as follows: Inhibition of SARS Co-V 3CL protease.
Data set [7] concerns RAW264.7. Kind of data set: Cytoprotective activity against anthrax toxin lethal factor-induced cell death in mouse RAW264.7 cells assessed as cell viability at 3 uM by MTT reduction assay. Type of data set: functional, cell-based.
The test system of data set [8] is RAW264.7. The data set is described as follows: Cytoprotective activity against anthrax lethal toxin-induced cell death in mouse RAW264.7 cells assessed as cell viability at 2 uM preincubated for 45 mins with lethal toxin measured after 1 hr by MTT reduction assay. Format: functional, cell-based.

SMILES strings stand for the structures. Calls of active or inactive are those of the source. No cut-off for these calls is given here.

Consider `Cc1ccc2oc(=O)c3cnn(CC(=O)Nc4ccccc4N4CCN(C)CC4)c3c2c1`, for which the result in data set [1] and in data set [2] was Active. The viability at 10 µM in data set [3] stood at 75%.
In the case of `Cc1ccnc(-n2sc3ccccc3c2=O)n1`, the outcome in data set [1] was inactive.
On to `N=C1Sc2ccccc2C2=NCCCN12`, for which, in data set [1], the outcome was inactive.
`CN(C)CCCn1cc(C2=C(c3c[nH]c4ccccc34)C(=O)NC2=O)c2ccccc21` [GF-109203]: in data set [4], the Activity result is given as “Toxic”. In addition, the viability at 10 µM in data set [3] was 60%.
In the case of `O=C(Nc1ccc([N+](=O)[O-])cc1Cl)c1cc(Cl)ccc1O` [NICLOSAMIDE], the result in data set [1] and in data set [2] was Active. In addition, the viability at 5 µM in data set [5] stood at 100%. This compound also returned an IC50 in data set [6] of 40 µM.
`COc1cc2c(O)c3c(c(-c4ccc5c(c4)OCO5)c2cc1OC)C(=O)OC3` [DIPHYLLIN]: the outcome in data set [7], in data set [8] and in data set [2] was Active. Further, the viability at 5 µM in data set [5] was 100%.
